Test results published in patent US20200085047A1, “Use of an Acyclic Picolinamide Compound as a Fungicide for Control of Phytopathogenic Fungi in Vegetables” (Dow AgroSciences LLC, priority 2017, published 2020).

Assays:
Type in all cases: in vivo
[1] = system: Colletotrichum capsici; experiment: Field assessment of Colletotrichum capsici (COLLCA) on hot peppers, 4 day curative; conditions: 5% EC + Trycol, hot pepper
Source text: Field Assessment of Colletotrichum capsici (COLLCA) on Hot Peppers:
For the 4 day curative trial, a fungicidal treatment containing a 5% EC formulation of compound I plus an adjuvant (Trycol, 50% w/w at 0.2% v/v), was sprayed on hot pepper plants (CPSAN) twice, the first application at the flowering and fruiting stage 59 days after planting, with the second application after 7 days. Formulations of compound I were applied at rates of 50, 100, 150 and 200 grams of active ingredient per hectare (g ai/ha). The experimental plots were inoculated with the anthracnose pathogen 4 days before the first application (curative). The treatment was part of an experimental trial designed as a randomized complete block with four replications and a plot of approximately 2×1 m, with formulations of compound I being applied at water volume of 1200 L/ha.
Disease severity was assessed as the percent fruit area diseased per plant (6 plants per plot randomly). Anthracnose infection was assessed four times, 7 days after application A (DAAA), plus 7, 14 and 21 DAAB. Area under the disease progress curve (AUDPC) was calculated for each plot using the sets of recorded visual infection data. Relative AUDPC (% control based on AUDPC) was calculated as percent of the nontreated control.

[2] = system: Colletotrichum coccodes; experiment: Field assessment of Colletotrichum coccodes (COLLCA) in tomato; conditions: SC
Source text: Field Assessment of Colletotrichum Coccodes (COLLCA) in Tomato:
A fungicidal treatment containing Compound I, applied in an SC formulation (MSO built-in) and tank mixed with an adjuvant (Agnique BP-420, 50% w/w at 0.2% v/v or Adsee C80W 80%), was sprayed on tomato plants (LYPES, Roma VS Saladette type variety) at growth stage 12 in vegetative growth at rates of 50, 75, 100, and 150 grams of active ingredient per hectare (g ai/ha). The experimental plots were run with natural infestation of the anthracnose pathogen and supplemented with additional inoculum about one day after the 1st application. The treatment was part of an experimental trial designed as a randomized complete block (RCB) with four replications and a plot of approximately 6.67×30 ft. Compound I was applied at water volume of 40 gal/acre, using a backpack sprayer (carbon dioxide (CO2), 8004VS FF nozzles) and pressurized at 38 psi.
Percent leaf severity was assessed three times during the trial (0-23 days after application 1). Area under the disease progress curve (AUDPC) was calculated for each plot using the recorded leaf severity data. Relative AUDPC (% control based on AUDPC) was calculated as percent of the untreated control.

[3] = system: Erysiphe cichoracearum; experiment: Field assessment of Erysiphe cichoracearum (ERYSCI) on cucumber, 2 day curative; conditions: 5% EC + Trycol
Source text: Field Assessment of Erysiphe Cichoracearum (ERYSCI) on Cucumber:
In the curative trial, a fungicidal treatment containing a 5% EC formulation of compound I plus an adjuvant (Trycol, 50% w/w at 0.2% v/v), was sprayed on cucumber plants (CUMSA) twice, the first application at the fruiting stage 29 days after planting, with the second application after 7 days. Formulations of compound I were applied at rates of 50, 100 and 150 grams of active ingredient per hectare (g ai/ha). The experimental plots were inoculated with the powdery mildew pathogen 2 days before the first application (curative). The treatment was part of an experimental trial designed as a randomized complete block with four replications and a plot of approximately 2×1 m, with formulations of compound I being applied at water volume of 1200 L/ha based on seedling sizes.
Disease severity was assessed as percent diseased area of cucumber foliage per plant (6 plants per plot randomly). Powdery mildew disease severity was assessed four times, 7 days after application A (DAAA), plus 7, 14 and 21 DAAB. Area under the disease progress curve (AUDPC) was calculated for each plot using the sets of recorded visual infection data. Relative AUDPC (% control based on AUDPC) was calculated as percent of the nontreated control.

[4] = system: Botrytis cinerea; experiment: Greenhouse assessment of Botrytis cinerea (BOTRCI) on broad bean; conditions: inoculated 1-day post application
Protocol: Greenhouse Assessment of Botrytis cinerea (BOTRCI) on Broad Bean: Technical grades of material were dissolved in acetone, which were then mixed with nine volumes of water containing 100 ppm of Triton X-100. The fungicide formulations were applied onto seedling plants using an automated booth sprayer to run off. All sprayed plants were allowed to dry prior to further handling. Test plants were inoculated with Botrytis cinerea 1-day post application. When disease symptoms were fully expressed on the untreated plants, percent diseased area of the plant was assessed on a scale of 0 to 100 percent disease severity. Percent disease control was calculated using the ratio of disease severity on treated plants relative to untreated plants.

[5] = system: Corynespora cassiicola; experiment: Field assessment of Corynespora cassiicola (CORYCA) in tomato; conditions: SC
Source text: Field Assessment of Corynespora cassiicola (CORYCA) in Tomato:
A fungicidal treatment containing Compound I, applied in an SC formulation (MSO built-in) and tank mixed with an adjuvant (Agnique BP-420, 50% w/w at 0.2% v/v or Adsee C80W 80%), was sprayed on tomato plants (LYPES, Charger variety) at growth stage BBCH64 (4th flower open) at rates of 50, 75, 100, and 150 grams of active ingredient per hectare (g ai/ha). The experimental plots were inoculated with the target spot pathogen one day after initial application. The treatment was part of an experimental trial designed as a randomized complete block (RCB) with four replications and a plot of approximately 6×25 feet (ft). Compound I was applied at water volume of 100 gallons per acre (gal/acre), using a tractor sprayer (SCDISC D1 Nozzles) and pressurized at 200 psi.
Disease severity (percentage of visual diseased foliage (leaf) on whole plot) was assessed four times during the trial (1-20 days after application, DAA). Area under the disease progress curve (AUDPC) was calculated for each plot using the sets of recorded severity data. Relative AUDPC (% control based on AUDPC) was calculated as percent of the untreated control.

[6] = Compound I 50 g/ha, Agnique BP420, 200 mL/ha
[7] = Compound I 50 g/ha, MSO, 100 g/ha
[8] = Compound I 75 g/ha, MSO, 150 g/ha
[9] = Compound I 100 g/ha, Adsee C80W 80%, 250 g/ha
[10] = Compound I 100 g/ha, Agnique BP420, 400 mL/ha
[11] = Compound I 100 g/ha, MSO, 200 g/ha
[12] = Compound I 150 g/ha, Agnique BP420, 600 mL/ha
[13] = Compound I 150 g/ha, MSO, 300 g/ha

COc1ccnc(C(=O)N[C@@H](C)C(=O)O[C@@H](C)C(c2ccc(F)cc2)c2ccc(F)cc2)c1OC(C)=O [Compound I, (S)-1,1-bis(4-fluorophenyl)propan-2-yl (3-acetoxy-4-methoxypicolinoyl)-L-alaninate]
Percent control based on AUDPC, COLLCA 4 DC ([1]; 50 g ai/ha): C (26-50)
Percent control based on AUDPC, COLLCA 4 DC ([1]; 100 g ai/ha): B (51-75)
Percent control based on AUDPC, COLLCA 4 DC ([1]; 150 g ai/ha): B (51-75)
Percent control based on AUDPC, COLLCA 4 DC ([1]; 200 g ai/ha): B (51-75)
Percent Control of COLLCA (AUDPC) [2, 6]: 67%
Percent Control of COLLCA (AUDPC) [2, 7]: 46.0%
Percent Control of COLLCA (AUDPC) ([2]; Compound I 75 g/ha, Agnique BP420, 2300 mL/ha): 91.1%
Percent Control of COLLCA (AUDPC) [2, 8]: 75.5%
Percent Control of COLLCA (AUDPC) [2, 9]: 57.3%
Percent Control of COLLCA (AUDPC) [2, 10]: 91.0%
Percent Control of COLLCA (AUDPC) [2, 11]: 92.6%
Percent Control of COLLCA (AUDPC) [2, 12]: 95.7%
Percent Control of COLLCA (AUDPC) [2, 13]: 95.3%
Percent control based on AUDPC, ERYSCI 2 DC ([3]; 50 g ai/ha): A (76-100)
Percent control based on AUDPC, ERYSCI 2 DC ([3]; 100 g ai/ha): B (51-75)
Percent control based on AUDPC, ERYSCI 2 DC ([3]; 150 g ai/ha): C (26-50)
% Control, BOTRCI ([4]; 6.25 ppm): B (51-75)
% Control, BOTRCI ([4]; 25 ppm): A (76-100)
% Control, BOTRCI ([4]; 100 ppm): A (76-100)
% Control, BOTRCI ([4]; 400 ppm): A (76-100)
Percent Control of CORYCA (AUDPC) [5, 6]: 53.1%
Percent Control of CORYCA (AUDPC) [5, 7]: 55.2%
Percent Control of CORYCA (AUDPC) ([5]; Compound I 75 g/ha, Agnique BP420, 300 mL/ha): 56.9%
Percent Control of CORYCA (AUDPC) [5, 8]: 56.1%
Percent Control of CORYCA (AUDPC) [5, 9]: 61.4%
Percent Control of CORYCA (AUDPC) [5, 10]: 74.1%
Percent Control of CORYCA (AUDPC) [5, 11]: 71.6%
Percent Control of CORYCA (AUDPC) [5, 12]: 83.9%
Percent Control of CORYCA (AUDPC) [5, 13]: 84.0%
